Measured values published in patent US6770740B1, “Crosslinked DNA condesate compositions and gene delivery methods” (The Regents of the University of Michigan, priority 1999, dated 2004).
Values belong to the molecule of their own block, whether it stands above or below them. Where a SMILES comes first, the peptide text is derived from it. Where no end group is shown, it is not given here. Side-chain parts run from the residue outwards. vinylsulfone = vinylsulfone linkage of the PEG to the cysteine sulfhydryl (non-reducible, from PEG-vinylsulfone)

Key:
[1] = Serum stability of DNA condensates in DNase I augmented mouse serum; assay type: in vitro ADME; conditions: 50% serum containing 0.12 units of DNase I, 37° C.
Description: DNA condensates (100 μL) were combined with 100 μL of DNase I augmented mouse serum (0.12 U of DNase I per 100 μl serum) and 3 μL of 5 M sodium chloride to bring the final salt concentration to 150 mM. Samples were incubated at 37° C. for 3 h while rapidly freezing 20 μL aliquots at time points ranging from 0 to 180 min. Serum samples were processed by adding 3 μL (0.31 U) of proteinase K and then incubated at 37° C. for 30 min to remove endonuclease activity. Sodium chloride was then added (4.6 μL of 5 M) along with trypsin (3 μL containing 7 U) and allowed to digest for 12 h at 37° C. to remove the crosslinked peptide. Samples were applied to a 1% agarose gel containing 0.05% SDS and electrophoresed as described above.

HepG2 cells [2] = test: Cytotoxicity in cell culture: total protein of cell homogenates 24 h after transfection; assay type: cell-based; conditions: 1-4 mol equivalents of glutaraldehyde corresponding to 1.5-6 μM
Description: HepG2 cells (3×10^5) were plated on 6×35 mm wells and grown for 48 h to 40% confluence in MEM supplemented with 10% fetal calf serum (FCS). Crosslinked DNA condensates (10 μg of DNA in 200 μL) were transfected in triplicate by drop wise addition to cells in 2% FCS either with or without 80 μM chloroquine followed by 5 h incubation, after which the media was replaced with 2 mL of MEM containing 10% fetal calf serum and allowed to incubate for an additional 19 h. Wells were sampled for 10 days at 24 h intervals by removing and freezing (−20° C.) the media and replacing it with 2 mL of fresh 10% FCS MEM.
The cytotoxity of both free glutaraldehyde and crosslinked DNA condensates were examined in cell culture. The total protein of cell homogenates harvested 24 h after transfecting cells in the presence of free glutaraldehyde or crosslinked DNA condensates were indistinguishable from control, indicated no toxicity when using 1-4 mol equivalents of glutaraldehyde corresponding to 1.5-6 μM.

[3] = QELS particle size and zeta potential of PEG-peptide DNA condensates and co-condensates, Example 1; assay type: physicochemical
Description: The particle size of peptide DNA condensates were analyzed at a DNA concentration of 50 μg/ml in Hepes by quasielastic light scattering (QELS). The particle surface change was determined by zeta potential analysis using a Brookhaven ZetaPlus™ (Brookhaven Instruments).
DNA co-condensates were prepared by add-mixing AlkCWK18 and PEG-VS-CWK18 in ratios ranging from 0 to 100 mol %, and condensing DNA at a charge ratio of 2.3:1 as described above. To establish the mol ratio of peptides bound to DNA, condensates were dialyzed in a fixed volume (0.5 ml) dialyzer for 75 h against water using a 100,000 MWCO membrane. Peptide DNA condensates in the retentate (0.5 ml) were dissociated by adding 50 μl of 5 M sodium chloride in 0.1% TFA. AlkCWK18 and PEG-VS-CWK18 were quantified by injecting 1 nmol of peptide (100 μl) onto analytical RP-HPLC eluted with 0.1% TFA and a gradient of acetonitrile (5 to 65% over 30 min) while detecting tryptophan by fluorescence (λex 280 nm, λem 350 nm). The peak integration areas were used to quantify AlkCWK18 and PEG-VS-CWK18 with reference to standard curves developed for each peptide.

plasmid DNA = test: Fluorescent dye (thiazole orange) displacement assay of peptide binding to DNA, Example 1; conditions: corresponding to a charge ratio of 1.8:1
Description: Peptide DNA condensates were formed by adding 75 μg of DNA (pCMVL in 750 μl of 5 mM Hepes pH 7.4) to varying amounts of peptide (7.5 to 90 nmol in 750 μl of Hepes) while vortexing, followed by equilibration at RT for 1 h. Peptide binding to DNA was monitored by a fluorescent dye displacement assay (Wadhwa et al. 1997). A 1 μg aliquot of the peptide DNA condensate was diluted to 1 ml in Hepes containing 0.1 μM thiazole orange. The fluorescence of the intercalated dye was measured on an LS50B fluorimeter (Perkin Elmer, UK) in a microcuvette by exciting at 500 nm while monitoring emission at 530 nm.

[4] = Particle size and zeta potential of peptide DNA condensates after freeze-drying and rehydration, Example 2; assay type: physicochemical; conditions: no sucrose
Description: The concentration of AlkCWK18 and PEG-CWK18 were determined by UV absorbance (Trp, ε280 nm=5,600 M^−1 cm^−1). Peptide DNA condensates were prepared in 5 mM Hepes pH 5 at a peptide/DNA stoichiometry of 0.3 nmol of peptide/μg of DNA. The condensates were formed by adding 450 μL of 100 μg/mL NT-βGal drop wise to 450 μL of 30 nmol/mL AlKCWK18 or PEG-CWK18 while vortexing. Each sample was prepared in triplicate, and after a 30 min equilibration, 20-100 μL of 50 wt/vol % solutions of either glucose, mannitol, galactose, dextran or sucrose were added followed by normalization to 1 mL to give a final sugar concentration of 1-5 wt/vol % and DNA concentration of 50 μg/mL.
The mean particle size of 50 μg/mL AlkCWK18 DNA condensates were determined by quasielastic light scattering (QELS) on a Brookhaven ZetaPlus™. Samples (1 mL) were frozen rapidly in dry ice ethanol in a 1.5 mL microcentrifuge tube and then lyophilized on a Labconco™ freeze dryer for 24 h operated at a constant vacuum of 55×10^−6 mBar while maintained at room temperature (22° C.). The maximal vacuum was achieved within 2 min after applying the sample.
At the highest sucrose concentration of 5 wt/vol %, samples remained frozen throughout freeze-drying but dried to form a glassy solid after 24 h. […] Freeze-dried samples prepared in triplicate were reconstituted in 1 mL of deionized water, allowed to equilibrate for 30 min and then analyzed by QELS as described above. Large peptide DNA condensates were measured by light microscopy with magnification of 100X. The particle size of PEG-peptide DNA condensates were also measured by transmission electron microscopy (TEM) according to a published procedure (Wadhwa et al., 1997).
The relationship between pH and rehydrated peptide DNA condensate particle size was examined in 5 mM Hepes at a pH range of 3-7. The particle size of 50 μg/mL DNA condensates in 5 wt/vol % sucrose was determined by QELS before and after freeze-drying as described above.
The rehydrated particle size of AlkCWK18 or PEG-CWK18 DNA condensates were also examined at a concentration of 0.05-5 mg/mL in 5 mM Hepes pH 5 with (AlkCWK18 DNA) or without (PEG-CWK18 DNA) the addition of 5 wt/vol % sucrose. DNA condensates were freeze-dried and reconstituted to the original concentration. QELS particle size analysis before and after freeze-drying required dilution of an aliquot of the sample to concentration of 50 μg/mL. Freeze-dried 5 mg/mL PEG-CWK18 DNA condensates were also reconstituted in 0.9 wt/vol % sodium chloride and analyzed for particle size.

HepG2 cells [5] = test: Cell binding of 125I-DNA condensates, Example 1; assay type: cell-based; conditions: 5 h transfection, 10 μg 125I-DNA condensates
Description: Iodinated plasmid DNA was prepared with specific activity of 300 nCi per μg of DNA as described previously (Teribesi et al., 1998). Prior to forming DNA condensates, the specific activity of the ^125I DNA was adjusted to 4.5 nCi per μg of DNA by combining with unlabeled plasmid. DNA condensates were prepared using AlkCWK18, PEG-SS-CWK18 or PEG-VS-CWK18 as described above. Peptide ^125I-DNA condensates (10 μg) were used to transfer HepG2 cells for 5 h according to the procedure described above. The radioactive media was removed, cells were washed with phosphate buffered saline, harvested with lysis buffer, and the cell-associated radioactivity was quantified by gamma counting.

HepG2 cells [6] = test: In vitro luciferase gene expression, Example 1; assay type: cell-based; conditions: HepG2, 24 h post-transfection, 10 μg DNA, 80 μM chloroquine
Description: HepG2 cells were plated at 1.5×10^5 cells per 35 mm well and grown to 40-70% confluence in MEM supplemented with 10% fetal calf serum (FCS). Peptide DNA condensates (10 μg of DNA) were added dropwise to triplicate sets of cells in 2% FCS containing 80 μM chloroquine. After 5 h incubation at 37° C., the media was replaced with MEM supplemented with 10% FCS, and luciferase expression was determined at 24 h. Cells were washed twice with ice-cold phosphate buffered saline (calcium and magnesium free) and then treated with 0.5 ml of ice-cold lysis buffer (25 mM Tris hydrochloride pH 7.8, 1 mM EDTA, 8 mM magnesium chloride, 1% Triton X-100, 1 mM DTT) for 10 min. The cell lysate was scraped, transferred to 1.5 ml micro centrifuge tubes, and centrifuged for 7 min at 13,000 g at 4° C. to pellet debris.
Lysis buffer (300 μl), sodium-ATP (4 μl of a 180 mM solution, pH 7, 4° C.) and cell lysate (100 μl, 4° C.) were combined in a test tube, briefly mixed and immediately placed in the luminometer. Luciferase relative light units (RLU) were recorded on a Lumat™ LB 9501 (Berthold Systems, Germany) with 10 sec integration after automatic injection of 100 μl of 0.5 mM D-luciferin (prepared fresh in lysis buffer without DTT). […]

[7] = Solubility of peptide DNA condensates: particle size as a function of DNA concentration; assay type: physicochemical; conditions: throughout DNA concentrations 0.05-2 mg/ml

time of stability of DNA before metabolism into oligonucleotides [1]: 60 min
Molecule: NCCCC[C@H](NC(=O)[C@H](CCCCN)NC(=O)[C@H](CCCCN)NC(=O)[C@H](CCCCN)NC(=O)[C@H](CCCCN)NC(=O)[C@H](CCCCN)NC(=O)[C@H](CCCCN)NC(=O)[C@H](CCCCN)NC(=O)[C@H](CCCCN)NC(=O)[C@H](CCCCN)NC(=O)[C@H](CCCCN)NC(=O)[C@H](CCCCN)NC(=O)[C@H](CCCCN)NC(=O)[C@H](CCCCN)NC(=O)[C@H](CCCCN)NC(=O)[C@H](CCCCN)NC(=O)[C@H](CCCCN)NC(=O)[C@H](CCCCN)NC(=O)[C@H](Cc1c[nH]c2ccccc12)NC(=O)[C@@H](N)CS)C(=O)O [CWK18, Cys-Trp-Lys18] (H-CWKKKKKKKKKKKKKKKKKK-OH; N-terminus and C-terminus assumed)

Molecule: O=CCCCC=O [glutaraldehyde]
cytotoxicity (HepG2 cells [2]): no toxicity

peptide:DNA stoichiometry at the asymptote of the dye displacement titration curve (relative DNA binding affinity) (plasmid DNA): 0.3 nmol per μg of DNA
Molecule: PEG-VS-CWK18: non-reducible PEG-peptide from PEG-vinylsulfone (5 kDa) and the sulfhydryl of CWK18 (C([vinylsulfone-PEG 5 kDa])WKKKKKKKKKKKKKKKKKK)
zeta potential of DNA condensates ([3]; charge ratio 1.8:1): +10 mV | mean diameter of DNA condensates ([3]; charge ratio of 1.8:1 or higher, 50 μg/ml DNA in Hepes): 90 nm | particle diameter of freeze-dried and rehydrated DNA condensates by TEM ([4]; 5 mg/mL DNA): less than 100 nm | DNA concentration up to which particle size was retained on rehydration ([4]; rehydrated in water or normal saline): 5 mg/mL | cell associated 125I-DNA, percent of dose (HepG2 cells [5]): 0.2% | reduction of spontaneous gene transfer (luciferase expression) relative to AlkCWK18 DNA condensates (HepG2 cells [6]): 1000 fold | mean diameter of DNA condensates [7]: < 100 nm
